According to publication PMC6736568, “Discovery of Novel Anti-cryptosporidial Activities From Natural Products by in vitro High-Throughput Phenotypic Screening” (Frontiers in Microbiology, 2019):
Read-outs that look alike come from different tables or passages of the source.

Assays:
Cryptosporidium parvum = assay: qRT-PCR assay of the growth of C. parvum in vitro in HCT-8 host cells (primary and secondary screening, EC50); assay type: cell-based
[1] = primary screening at 10 uM, from Hs18S ΔCT
[2] = primary screening at 10 uM, treated vs control

Molecule	Cytotoxicity (%) (HCT-8 host cells (Hs18S); [1])	Hs18S ΔCT (HCT-8 host cells (Hs18S); [2])	Inhibition (%) (Cryptosporidium parvum; primary screening at 10 uM)	further results
CC1(C)C2CC(=O)[C@]3(C)C(CC[C@@]4(C)[C@H](c5ccoc5)OC(=O)C5OC543)[C@@]2(C)[C@@H](O)C[C@H]1O (stereo partly drawn)	4.7	0.07	69.64	% Inhibition (3.3 uM) (Cryptosporidium parvum; secondary screening at 3.3 uM): 3%
C=C1CCC(C2CC(=O)OC2=O)C(=O)CCC2C1CC2(C)C (stereo not drawn)	-6.8	-0.09	23.70	
C/C1=C\CC/C(C)=C/CC(C)(C)/C=C/C1	0.1	0.00	-30.91	
CC[C@H](C=C[C@@H](C)[C@H]1CC[C@H]2[C@@H]3CCC4=CC(=O)CC[C@]4(C)[C@H]3CC[C@]12C)C(C)C				Hs18S ΔCT (HCT-8 host cells (Hs18S)): 0.46; Cytotoxicity (%) (HCT-8 host cells (Hs18S); 10 µM): 27.4; % Inhibition (3.3 uM) (Cryptosporidium parvum): -6; Inhibition (%) (Cryptosporidium parvum; 10 µM): 64.69
3-ACETYLGEDUNOL	56.3	1.19	-40.49	
CC1=CC(=O)CC(C)(C)C1(O)/C=C/C(C)=C\C(=O)O (racemic) [ABSCISIC ACID (cis,trans; +/-)]	36.3	0.65	-7.09	
C=CC[S+]([O-])C[C@H](N)C(=O)O (mixture of isomers) [L(+/-)-ALLIIN]	-12.5	-0.17	21.98	
CC1(C)C(=O)[C@@H]2O[C@@H]2[C@@]2(C)C1C[C@@H](O)[C@]1(C)C2CC[C@@]2(C)[C@H](c3ccoc3)OC(=O)C3OC321 (stereo partly drawn) [1,2alpha-EPOXYDEACETOXYDIHYDROGEDUNIN]	-12.9	-0.18	56.48	
CC1(C)C2CC(=O)[C@]3(C)C(CC[C@@]4(C)[C@H](c5ccoc5)OC(=O)[C@H]5O[C@]543)[C@@]2(C)C(=O)C[C@H]1O (stereo partly drawn) [1,7-DIDEACETOXY-1,7-DIOXO-3-DEACETYLKHIVORIN]	-6.9	-0.10	26.84	
COc1cc2oc3cc(OC)c(OC)c(CC=C(C)C)c3c(=O)c2c(O)c1CC=C(C)C [1-HYDROXY-3,6,7-TRIMETHOXY-2,8-DIPRENYLXANTHONE]	7.7	0.12	-18.05	
C[C@@H](N)[C@@H](O)c1ccccc1 [1R,2S-PHENYLPROPYLAMINE]			-7.00	Hs18S ΔCT (HCT-8 host cells (Hs18S)): -0.16; Cytotoxicity (%) (HCT-8 host cells (Hs18S); 10 µM): -12.0
COc1cc(O)c(C(=O)/C=C/c2ccc(OC)c(O)c2)c(OC)c1 [2',3-DIHYDROXY-4,4',6'-TRIMETHOXYCHALCONE]	-22.2	-0.29	-6.64	
COc1ccc(/C=C/C(=O)c2ccc(O)cc2O)cc1 [2',4'-DIHYDROXY-4-METHOXYCHALCONE]	-99.8	-1.00	14.88	
COc1cc(O)c(C(=O)/C=C/c2ccc(O)c(OC)c2)c(OC)c1 [2',4-DIHYDROXY-3,4',6'-TRIMETHOXYCHALCONE]		0.09		
O=C(/C=C/c1ccc(O)cc1)c1ccccc1O [2',4-DIHYDROXYCHALCONE]	8.3	0.13	-21.40	
COc1ccc(/C=C/C(=O)c2cc(O)ccc2O)cc1 [2',5'-DIHYDROXY-4-METHOXYCHALCONE]				Hs18S ΔCT (HCT-8 host cells (Hs18S)): -0.46; Cytotoxicity (%) (HCT-8 host cells (Hs18S); 10 µM): -37.7; Inhibition (%) (Cryptosporidium parvum; 10 µM): -23.93
COc1ccc(-c2oc3cc(OC)c(OC)c(OC)c3c(=O)c2OC)cc1 [3,4',5,6,7-PENTAMETHOXYFLAVONE]	15.6	0.24	-9.57	
COc1ccc(-c2oc3ccccc3c(=O)c2OC)cc1 [3,4'-DIMETHOXYFLAVONE]	22.3	0.36	-22.87	
CC1(C)CC2C1CC[C@]1(C)CCC3C(C(=O)O)CC(=O)O[C@@]32C1 (stereo partly drawn) [3-HYDROXY-4-(SUCCIN-2-YL)-CARYOLANE delta-LACTONE]	28.8	0.49	51.45	
NCCc1ccc(O)c(O)c1 [3-HYDROXYTYRAMINE]				Hs18S ΔCT (HCT-8 host cells (Hs18S)): 0.76; Cytotoxicity (%) (HCT-8 host cells (Hs18S); 10 µM): 41.1; % Inhibition (3.3 uM) (Cryptosporidium parvum; secondary screening at 3.3 uM): 6%
CC(=O)OC1CCC2(C)C(CC(OC(C)=O)C3(C)C4=CC(=O)OC(c5ccoc5)C4(C)CCC23)C1(C)C (stereo not drawn) [3alpha-ACETOXYDIHYDRODEOXYGEDUNIN]		-0.24		% Inhibition (3.3 uM) (Cryptosporidium parvum; secondary screening at 3.3 uM): 25%
CC(C(=O)O)[C@H]1CCC2C3CC=C4C[C@@H](O)CC[C@]4(C)C3CC[C@@]21C (stereo partly drawn) [3beta-HYDROXY-23,24-BISNORCHOL-5-ENIC ACID]	-63.2	-0.71	-20.26	
CC(=O)O[C@@H]1CC2C(C)(CC[C@H](O)C2(C)C)C2CC[C@]3(C)C(=CC(=O)O[C@H]3c3ccoc3)C21C (stereo partly drawn) [3beta-HYDROXYDEOXODIHYDRODEOXYGEDUNIN]	-19.7	-0.26	77.26	% Inhibition (3.3 uM) (Cryptosporidium parvum; secondary screening at 3.3 uM): -21%
C[C@@H]1CC[C@@]2(OC1)O[C@H]1C[C@H]3[C@@H]4CC[C@H]5C[C@@H](O)CC[C@]5(C)C4=CC[C@]3(C)[C@H]1[C@@H]2C [3beta-HYDROXYISOALLOSPIROST-9(11)-ENE]	-12.6	-0.17	6.79	
COc1cc(O)c(C(C)=O)c(O)c1 [4-O-METHYLPHLORACETOPHENONE]	10.4	0.16	2.57	
COc1ccc(-c2cc(=O)c3c(O)cc(OC)c(OC)c3o2)c(OC)c1 [5-HYDROXY-2',4',7,8-TETRAMETHOXYFLAVONE]	13.2	0.20	89.23	% Inhibition (3.3 uM) (Cryptosporidium parvum; secondary screening at 3.3 uM): -83%
CC(=O)O[C@H]1C[C@@H](OC(C)=O)C(C)(C)C2C[C@@H](O)[C@]3(C)C(CC[C@@]4(C)[C@H](c5ccoc5)OC(=O)[C@H]5O[C@]543)[C@]21C (stereo partly drawn) [7-DEACETYLKHIVORIN]	-46.2	-0.55		

Molecule	Cytotoxicity (%) (HCT-8 host cells (Hs18S); [1])	Hs18S ΔCT (HCT-8 host cells (Hs18S); [2])	Inhibition (%) (Cryptosporidium parvum; primary screening at 10 uM)	further results
CC1(C)C(=O)C=C[C@]2(C)[C@H]3CC[C@@]4(C)[C@H](c5ccoc5)OC(=O)[C@H]5O[C@]54[C@]3(C)C=C[C@@H]12 [7-DESACETOXY-6,7-DEHYDROGEDUNIN]		5.31		
C=CCc1cc(OC)c2c(c1OC)OCO2 [APIOLE]		0.06		
CN1CCc2cc3c(cc2[C@H]1[C@@H]1OC(=O)c2c1ccc1c2OCO1)OCO3 [BICUCULLINE (+)]	-169.4	-1.43		
CC12CCC(CC1=O)C2(C)C [CAMPHOR (1R)]		-0.22		
COC(=O)C[C@H]1C(C)(C)C(=O)[C@@H]2CC3=C(CC[C@]4(C)C3=CC(=O)O[C@H]4c3ccoc3)[C@@]1(C)C2=O [CARAPIN-8(9)-ENE]		-0.62		
C=C1CC/C=C(\C)CC[C@@H]2[C@@H]1CC2(C)C [CARYOPHYLLENE [t(-)]]	20.0	0.32		
C[C@H](CCC(=O)O)[C@H]1CC[C@H]2[C@@H]3[C@H](O)C[C@@H]4C[C@H](O)CC[C@]4(C)[C@H]3C[C@H](O)[C@]12C [CHOLIC ACID]				inhibition at 10 µM (Cryptosporidium parvum; Cryptosporidium parvum, HCT-8, primary screening at 10 uM, read-out: Inhibition (%)): 26.7%
CCC(C)C(=O)O[C@@H]1C[C@@]2(C)[C@H](c3ccoc3)OC(=O)CC23OC2(C)OC34[C@H](OC(=O)C(C)C)[C@@]3(O)[C@@H](OC(=O)C5(C)OC5C)[C@@]5(C)C[C@]3(O)[C@@](C)([C@H]5CC(=O)OC)C14O2 (stereo partly drawn) [ENTANDROPHRAGMIN]		-0.12		
CN[C@@H](C)[C@H](O)c1ccccc1.Cl [EPHEDRINE (1R,2S) HYDROCHLORIDE]			11.97	
COc1cc(/C=C/C(=O)O)ccc1O [FERULIC ACID]		-0.04		
CC[C@H](CC[C@@H](C)[C@H]1CC[C@H]2[C@@H]3CC[C@H]4C[C@@H](O)CC[C@]4(C)[C@H]3CC[C@]12C)C(C)C [FUCOSTANOL]	-61.6	-0.69		
Cc1cc(=O)oc2cc(O)ccc12 [HYMECHROME]		-0.28		
CC(=O)Oc1cc(-c2coc3cc(OC(C)=O)c(OC(C)=O)c(OC(C)=O)c3c2=O)cc(OC(C)=O)c1OC(C)=O [IRIGINOL HEXAACETATE]		-0.17		
CC1(C)C=Cc2c(c3c(c4c(=O)c(-c5ccc(O)c(O)c5)coc24)OC(C)(C)CC3)O1 [ISOPOMIFERIN]	-5.3	-0.07		
CNCc1ccccc1.Cl [N-METHYLBENZYLAMINE HYDROCHLORIDE]		-0.08		
Cl.NCCC[C@H](N)C(=O)O [ORNITHINE HYDROCHLORIDE]			-42.36	
CCCCCCCCCCCC[C@@H](C(=O)O)[C@H](C)C(=O)O [ROCCELLIC ACID]	-4.1	-0.06		
COc1cc(/C=C/C(=O)O)cc(OC)c1O [SINAPIC ACID]		0.25		
COc1ccc(-c2cc(=O)c3c(OC)c(OC)c(OC)c(OC)c3o2)cc1 [TANGERITIN]	8.0	0.12		
Cc1c(S(=O)(=O)[O-])oc2c1C(=O)C(=O)c1c-2ccc2c1CCCC2(C)C.[Na+] [TANSHINONE IIA SULFONATE SODIUM]		0.01		
COC1=C(OC)C(=O)C(C/C=C(\C)CC/C=C(\C)CC/C=C(\C)CC/C=C(\C)CC/C=C(\C)CC/C=C(\C)CC/C=C(\C)CC/C=C(\C)CC/C=C(\C)CCC=C(C)C)=C(C)C1=O [UBIDECARENEONE]	21.3	0.35		
COc1c(O)cc2oc3cc(O)c(CC=C(C)C)c(O)c3c(=O)c2c1CC=C(C)C [alpha-MANGOSTIN]	95.1	4.36		
COc1cc2c(cc1OC)C1C(=O)c3c(O)cc4c(c3OC1CO2)C=CC(C)(C)O4 (stereo not drawn) [alpha-TOXICAROL (dl)]		0.01		
HECOGENIN		-0.23		
ISOTECTORIGENIN, 7-METHYL ETHER			-18.66	
MEPARTRICIN		-0.51		
MONENSIN SODIUM (monensin A is shown)			94.05	% Inhibition (3.3 uM) (Cryptosporidium parvum; secondary screening at 3.3 uM): 99%
